From ChEMBL document CHEMBL6074635, “Replacement of the essential nitro group by electrophilic warheads towards nitro-free antimycobacterial benzothiazinones” (Eur J Med Chem, 2024) come the findings set out here.

Converted amounts (≈) assume the structure as drawn.

Data set [1] relates to Mycolicibacterium vaccae. Nature of the data set: Antimycobacterial activity against Mycobacterium vaccae JMRC:STI:10670 assessed as inhibition of bacterial growth incubated for 42 hrs by broth microdilution method. The class given is functional. For orientation: Broth dilution looks for growth in wells or tubes with falling amounts of substance.
Data set [2] relates to Mycolicibacterium smegmatis. The data set can be described thus: Antimycobacterial activity against Mycobacterium smegmatis JMRC:STH:00056 assessed as inhibition of bacterial growth incubated for 42 hrs by broth microdilution method. The format is functional.
The subject of data set [3] is Mycobacterium tuberculosis. Nature of the data set: Antimycobacterial activity against Mycobacterium tuberculosis H37Rv assessed as inhibition of bacterial growth incubated for 7 days by resazurin dye based two-fold dilution assay. The conditions noted are these: 168 h, time 7 day. The class given is functional. On the technique in general: The colour change of resazurin is a common sign of viable cells or microbes.

Data set [4] has as its system Mycobacterium tuberculosis. Nature of the data set: Antimycobacterial activity against Mycobacterium tuberculosis Erdman ATCC 35801 assessed as inhibition of bacterial growth incubated for 7 days by resazurin dye based two-fold dilution assay. The conditions noted are these: Erdman ATCC 35801, 168 h, time 7 day. The class given is functional.
Data set [5] can be described thus: Cytotoxicity against human HeLa cells incubated for 72 hrs by cell-titer blue reagent assay. The format is toxicity, cell-based.
Data set [6] in a line: Stability of compound in PBS at pH 7.4 assessed as half-life in presence of GSH incubated for 90 mins by UPLC-HRMS analysis. The format is physicochemical. The conditions noted are these: PBS with GSH.
The nature of data set [7]: Drug metabolism in BALB/cAnNCrl mouse assessed as HMC metabolite formation at 250 mg/kg,po measured after 24 hrs by UHPLC-HRMS analysis. The class given is ADME, organism-based. The conditions noted are these: in vivo.
For data set [8], the target named is T1, Decaprenylphosphoryl-beta-D-ribose oxidase (Mycobacterium tuberculosis (strain ATCC 25618 / H37Rv), UniProt P9WJF1).
T1 sequence (P9WJF1 whole entry): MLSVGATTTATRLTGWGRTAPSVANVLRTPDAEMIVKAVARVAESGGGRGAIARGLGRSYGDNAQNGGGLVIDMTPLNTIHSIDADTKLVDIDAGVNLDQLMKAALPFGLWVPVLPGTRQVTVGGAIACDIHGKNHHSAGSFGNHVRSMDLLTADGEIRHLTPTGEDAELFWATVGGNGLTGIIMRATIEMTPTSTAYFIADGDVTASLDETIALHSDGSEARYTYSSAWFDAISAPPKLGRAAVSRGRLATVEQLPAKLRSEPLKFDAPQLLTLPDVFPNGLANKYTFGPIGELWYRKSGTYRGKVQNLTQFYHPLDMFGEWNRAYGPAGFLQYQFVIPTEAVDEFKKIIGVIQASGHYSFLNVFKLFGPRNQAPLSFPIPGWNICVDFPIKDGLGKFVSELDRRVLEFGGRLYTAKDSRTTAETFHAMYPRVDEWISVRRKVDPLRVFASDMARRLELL
Nature of the data set: Reversible inhibition of recombinant Mycobacterium tuberculosis DprE1 extracted from Escherichia coli BL21(DE3) using FPR/GGPR as substrate incubated for 60 mins by resazurin dye based fluorescence plate reader analysis.

Data set [9] is described as follows: Stability of compound in PBS at pH 7.4 in presence of GSH incubated for 90 mins by UPLC-HRMS analysis. The conditions noted are these: buffer, pH 7.4, 1.5 h. The format is physicochemical.
Data set [10] concerns the target T1, Decaprenylphosphoryl-beta-D-ribose oxidase. The data set can be described thus: Covalent inhibition of recombinant Mycobacterium tuberculosis DprE1 extracted from Escherichia coli BL21(DE3) using FPR/GGPR as substrate incubated for 60 mins by resazurin dye based fluorescence plate reader analysis.
Data set [11] shares this target. Nature of the data set: Covalent inhibition of recombinant Mycobacterium tuberculosis DprE1 extracted from Escherichia coli BL21(DE3) assessed as inhibition constant using FPR/GGPR as substrate incubated for 60 mins by resazurin dye based fluorescence plate reader analysis.
Data set [12] can be described thus: Stability of compound in PBS at pH 7.4 assessed as compound remaining in presence of GSH incubated for 90 mins by UPLC-HRMS analysis. The format is physicochemical. The conditions noted are these: PBS with GSH, read-out: Stability.

Take `C#CP(=O)(Nc1cc(C(F)(F)F)cc2c(=O)nc(N3CCC4(CC3)OC[C@H](C)O4)sc12)OCC` (stereo partly specified): the MIC (as a rule, the lowest concentration that inhibits growth of the organism) in data set [1] was 12 µM (≈ 6.21 µg/mL); in data set [2], 96.6 µM (≈ 50 µg/mL); in [3], 10.3 µM (≈ 5.33 µg/mL); in data set [4], 10.3 µM (≈ 5.33 µg/mL). Moreover, the half-maximal cytotoxic concentration (CC50) (commonly the concentration giving 50% cytotoxicity) at 72 h in data set [5] came to 10.8 µM. Besides, the half-life (as a rule, the time needed for the level to fall by half in the phase considered) in data set [6] is 10.5 min. In [7], the Drug metabolism entry was “metabolite_notdetected”.
Consider `C=C=CC(=O)Nc1cc(C(F)(F)F)cc2c(=O)nc(N3CCC4(CC3)OC[C@H](C)O4)sc12`, for which the minimal inhibitory concentration (MIC) in data set [1] and in data set [2] was 107 µM (≈ 50 µg/mL) each time.
`C=CS(=O)(=O)Nc1cc(C(F)(F)F)cc2c(=O)nc(N3CCC4(CC3)OC[C@H](C)O4)sc12`: the minimal inhibitory concentration (MIC) in data set [1] came to 1.6 µM (≈ 0.786 µg/mL); in data set [2] it was 25.4 µM (≈ 12.5 µg/mL); in data set [3], 45.2 µM (≈ 22.2 µg/mL); in [4] it was 44.9 µM (≈ 22.1 µg/mL). Besides, the half-maximal inhibitory concentration (IC50) – broadly, the point on the concentration scale where inhibition reaches its midpoint – in data set [8] was 2620 nM.
For the compound `COC(=O)C(=O)Nc1cc(C(F)(F)F)cc2c(=O)nc(N3CCC4(CC3)OC[C@H](C)O4)sc12`, the results for the minimum inhibitory concentration (MIC) in [1] and in data set [2] were 51.3 µM (≈ 25 µg/mL) and 103 µM (≈ 50 µg/mL), respectively. For the same compound, in data set [5], the CC50 at 72 h was above 50 µM. In addition, the Stability result in data set [9] is listed as “Unstable”. Moreover, the Drug metabolism result in data set [7] was “metabolite_notdetected”.
In the case of `CCOC(=O)C(=O)Nc1cc(C(F)(F)F)cc2c(=O)nc(N3CCC4(CC3)OC[C@H](C)O4)sc12`, the MIC in data set [1] was found to be 49.8 µM (≈ 25 µg/mL); in data set [2], 99.7 µM (≈ 50 µg/mL). This compound showed a cytotoxic concentration (CC50) at 72 h in data set [5] above 50 µM. The Stability result in data set [9] was “Unstable”. Also, the Drug metabolism result in [7] was “metabolite_notdetected”.
Turning to `C=CC(=O)Nc1cc(C(F)(F)F)cc2c(=O)nc(N3CCC4(CC3)OC[C@H](C)O4)sc12`, the results for the minimal inhibitory concentration (MIC) in data set [2], in [3] and in data set [4] were 110 µM (≈ 50 µg/mL), 3.9 µM (≈ 1.78 µg/mL) and 3.6 µM (≈ 1.64 µg/mL), respectively. The IC50 in data set [10] amounted to 6.83 µM. The Ki in data set [11] worked out at 38.8 µM.
For `C=C(F)C(=O)Nc1cc(C(F)(F)F)cc2c(=O)nc(N3CCC4(CC3)OC[C@H](C)O4)sc12`, the MIC in data set [1] was found to be 13.2 µM (≈ 6.25 µg/mL); in data set [2] it was 106 µM (≈ 50 µg/mL); in data set [3] it was 13 µM (≈ 6.15 µg/mL); in data set [4], 15.5 µM (≈ 7.34 µg/mL). The IC50 in [8] worked out at 1130 nM.
Take `C[C@H]1COC2(CCN(c3nc(=O)c4cc(C(F)(F)F)cc(NC(=O)C(C)(C)Br)c4s3)CC2)O1`: the MIC in data set [1] turned out to be 45.4 µM (≈ 25 µg/mL); in [2], 90.8 µM (≈ 50 µg/mL). In [5], this compound gave a CC50 at 72 h above 50 µM. Also, the remaining at 1.5 h in [12] stood at 100%. For the same compound, the Drug metabolism result in data set [7] is listed as “metabolite_notdetected”. The concentration for half-maximal inhibition (IC50) in data set [10] came out at 81.4 µM. In data set [11], the Ki turned out to be 715 µM.
On to `C[C@H]1COC2(CCN(c3nc(=O)c4cc(C(F)(F)F)cc(N5CCC5=O)c4s3)CC2)O1`, for which the minimum inhibitory concentration (MIC) in data set [1] came out at 54.9 µM (≈ 25 µg/mL); in data set [2], 110 µM (≈ 50 µg/mL). This compound also displayed a CC50 at 72 h in data set [5] above 50 µM. The remaining at 1.5 h in data set [12] worked out at 100%.
On to `C=C(C)C(=O)Nc1cc(C(F)(F)F)cc2c(=O)nc(N3CCC4(CC3)OC[C@H](C)O4)sc12`, for which the MIC in data set [1] came out at 26.6 µM (≈ 12.5 µg/mL); in [2] it was 106 µM (≈ 50 µg/mL). Besides, in data set [10], the half-maximal inhibitory concentration (IC50) was 33.9 µM. Also, the Ki in data set [11] is 214 µM.
For the compound `CC(Cl)C(=O)Nc1cc(C(F)(F)F)cc2c(=O)nc(N3CCC4(CC3)OC[C@H](C)O4)sc12` (stereo partly specified), the MIC in [1] and in data set [2] was 102 µM (≈ 50 µg/mL) each time. In data set [5], this compound showed a 50% cytotoxic concentration (CC50) at 72 h above 50 µM. For the same compound, the remaining at 1.5 h in data set [12] came out at 100%. Moreover, the Drug metabolism result in [7] was “metabolite_notdetected”.
For `C=CP(=O)(Nc1cc(C(F)(F)F)cc2c(=O)nc(N3CCC4(CC3)OC[C@H](C)O4)sc12)OCC` (stereo partly specified), the MIC in data set [1] turned out to be 6 µM (≈ 3.12 µg/mL); in data set [2], 24.1 µM (≈ 12.5 µg/mL); in data set [3], 4.5 µM (≈ 2.34 µg/mL); in data set [4], 5 µM (≈ 2.6 µg/mL). In data set [5], this compound returned a 50% cytotoxic concentration (CC50) at 72 h above 50 µM. Also, the remaining at 1.5 h in [12] was found to be 100%. The Drug metabolism entry in data set [7] is reported as “metabolite_notdetected”. Also, the IC50 in data set [8] came to 19500 nM.
Turning to `C[C@H]1COC2(CCN(c3nc(=O)c4cc(C(F)(F)F)cc([N+](=O)[O-])c4s3)CC2)O1` [BTZ-043], the minimal inhibitory concentration (MIC) was 0.004 µM (≈ 0.00173 µg/mL) in [1], 0.058 µM (≈ 0.025 µg/mL) in data set [2], 0.002 µM (≈ 0.000863 µg/mL) in data set [3] and 0.002 µM (≈ 0.000863 µg/mL) in data set [4].
